Assay results reported in US10858344B2, “Hydantoin containing deoxyuridine triphosphatase inhibitors” (CV6 Therapeutics (NI) Limited, priority 2016, dated 2020).

Target: recombinant human deoxyuridine nucleotidohydrolase (dUTPase) (Homo sapiens (Human), UniProt P33316)
Experiment: fluorescence-based dUTPase inhibition assay
Type: biochemical
Settings: for % relative inhibition vs. positive control: mean over three concentrations, typically 100, 50 and 25 μmol/L, compared to in-run positive control
Description: Recombinant human deoxyuridine nucleotidohydrolase (dUTPase) is expressed and purified as described in Ladner R D, Carr S A, Huddleston M J, McNulty D E, Caradonna S J. J Biol Chem. 1996 Mar. 29; 271(13):7752-7. All drugs stocks are aliquoted and diluted as appropriate prior to use. The oligonucelotide primer, templates and fluorophore- and quencher-labeled detection probes are synthesized by Integrated DNA Technologies (Coralville, Iowa), subjected to polyacrylamide gel electrophoresis purification and reconstituted in Omnipur sterile nuclease-free water (EMD Chemicals USA, Gibbstown N.J.) at a stock concentration of 100 μmol/L. The two non-emissive (dark) quenching molecules incorporated into the detection probes include the Iowa black fluorescein quencher (IBFQ; absorption max 531 nm) and ZEN (non-abbreviation; absorption max 532 nm). The fluorescent label utilized is 6-FAM (5′-carboxyfluorescein; excitation max.=494 nm, emission max.=520 nm). Probes are further diluted to a working stock of 10 μmol/L and aliquoted to avoid repeated freeze/thaw cycles. AmpliTaq Gold DNA Polymerase, GeneAmp 10×PCR Buffer 2, MgCl2 and MicroAmp Optical 96-well Reaction Plates are purchased from Applied Biosystems (Carlsbad, Calif.). dNTPs are purchased individually at stock concentrations of 100 mmol/L from New England Biolabs at HPLC-certified >99% purity (Ipswich, Mass.).
Reaction mixtures contained primer, probe and template at an equimolar final concentration of 0.4 μmol/L. Magnesium chloride (MgCl2) is included at a final concentration of 2 mmol/L. Non-limiting dNTPs are included in the reaction mix in excess at a final concentration of 100 μmol/L (dUTP/dTTP is excluded). AmpliTaq Gold DNA polymerase is added at 0.875 U/reaction, 2.5 μl of 10×PCR buffer 2 added and nuclease-free ddH2O added to a final reaction volume of 25 μl. For dUTP inhibition analysis, the volume of ddH2O is further modified to accommodate an additional 1 μl of dUTPase (10 ng/μl) and 1 μl of inhibitor or DMSO control. Thermal profiling and fluorescence detection is performed using a customized thermal program on board a Roche Lightcycler LC480 Instrument II. For analysis of dNTPs, the thermal profile consisted of an 8 min 37° C. step followed by a 10 min 95° C. step to ‘hot-start’ the Taq polymerase and a primer extension time of up to 30 min at 60° C. Raw fluorescence spectra for 6-FAM is measured at specified time intervals to follow assay progression on board a Roche LightCycler 480 Software Version 1.5 and exported and analyzed in Microsoft Excel (Microsoft, Redmond Wash.) and Prism (GraphPad Software, La Jolla Calif.). Fluorescence values for blank reactions (limiting dNTP omitted) are subtracted to give normalized fluorescence units (NFU) to account for background fluorescence.
Test compounds are screened in a fluorescence-based assay. The assay employs a DNA polymerase-based approach utilizing an oligonucleotide template with 3 distinct regions: a 3′ primer binding region, a mid-template dUTP/thymidine triphosphate (TTP) detection region and a 5′ 6-[…] (FAM)-labeled probe binding region that incorporates a black hole quenching moiety. During the reaction, the probe and primer hybridize to the oligonucleotide template to form the template:primer:probe complex. When Taq polymerase binds to the primer in the TPP complex and dUTP is present, successful extension of the nascent strand occurs and the inherent 5′ to 3′ exonuclease activity of Taq polymerase cleaves and displaces the 6-FAM-labeled probe in a 5′ to 3′ direction, releasing the 6-FAM fluorophore from its proximity to the three quenchers. This displacement effectively disrupts the Förster resonance energy transfer (FRET) and the resulting fluorescence detected upon excitation is directly proportional to the amount of the dUTP available in the assay for incorporation. […]

recombinant human deoxyuridine nucleotidohydrolase (dUTPase), sequence (P33316 other isoform, or with tags, fused parts or gaps): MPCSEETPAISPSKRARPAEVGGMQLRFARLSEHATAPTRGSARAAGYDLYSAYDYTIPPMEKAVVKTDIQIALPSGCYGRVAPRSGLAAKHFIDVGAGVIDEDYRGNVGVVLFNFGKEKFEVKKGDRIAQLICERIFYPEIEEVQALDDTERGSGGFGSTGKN

% relative inhibition vs. positive control [%]	IC50 [µM]	SMILES
93	0.8	C[C@@H](NS(=O)(=O)CCCCCN1CC(=O)NC1=O)c1cccc(OC2CCCC2)c1 [Example 89, (R)—N-(1-(3-(cyclopentyloxy)phenyl)ethyl)-5-(2,4-dioxoimidazolidin-1-yl)pentane-1-sulfonamide]
23		CC1(C)C(=O)NC(=O)N1CCCCCS(=O)(=O)NC1(c2ccc(F)c(OCC3CC3)c2)CC1 [119b, N-(1-(3-(cyclopropylmethoxy)-4-fluorophenyl)cyclopropyl)-5-(5,5-dimethyl-2,4-dioxoimidazolidin-1-yl)pentane-1-sulfonamide]
1	150	C[C@@H](NS(=O)(=O)CCCCCN1CC(=O)NC1=O)c1ccc(F)c(OC[C@@H]2CCCN2C)c1 [Example 91, 5-(2,4-dioxoimidazolidin-1-yl)-N—((R)-1-(4-fluoro-3-(((S)-1-methylpyrrolidin-2-yl)methoxy)phenyl)ethyl)pentane-1-sulfonamide]
30	2.5	C[C@@H](NS(=O)(=O)CCCOCN1CC(=O)NC1=O)c1cccc(OC2CCCC2)c1 [Example 84, (R)—N-(1-(3-(cyclopentyloxy)phenyl)ethyl)-3-((2,4-dioxoimidazolidin-1-yl)methoxy)propane-1-sulfonamide]
5	14	C[C@@H](NS(=O)(=O)CCCCCN1CC(=O)NC1=O)c1ccc(F)c(OCC2CCOCC2)c1 [Example 100, (R)-5-(2,4-dioxoimidazolidin-1-yl)-N-(1-(4-fluoro-3-((tetrahydro-2H-pyran-4-yl)methoxy)phenyl)ethyl) pentane-1-sulfonamide]
172		O=C1CN(COCCCS(=O)(=O)NC2(c3ccc(F)c(OCC4CC4)c3)CC2)C(=O)N1 [compound 120, N-(1-(3-(cyclopropylmethoxy)-4-fluorophenyl)cyclopropyl)-3-((2,4-dioxoimidazolidin-1-yl)methoxy)propane-1-sulfonamide]
1	150	C[C@@H](NS(=O)(=O)CCCCCN1CC(=O)NC1=O)c1ccc(F)c(OS(=O)(=O)C(F)(F)F)c1 [Example 94, (R)-5-(1-((5-(2,4-dioxoimidazolidin-1-yl)pentyl)sulfonamido)ethyl)-2-fluorophenyl trifluoromethanesulfonate]
105		C[C@H]1C(=O)NC(=O)N1C/C=C/CCS(=O)(=O)NC1(c2cccc(OCC3CC3)c2)CC1 [123a, (S,E)-N-(1-(3-(cyclopropylmethoxy)phenyl)cyclopropyl)-5-(5-methyl-2,4-dioxoimidazolidin-1-yl)pent-3-ene-1-sulfonamide]
0	> 25	C[C@@H](NS(=O)(=O)CCCCCN1CC(=O)NC1=O)c1ccc(F)c(OCc2nn[nH]n2)c1 [Example 102, (R)—N-(1-(3-((2H-tetrazol-5-yl)methoxy)-4-fluorophenyl)ethyl)-5-(2,4-dioxoimidazolidin-1-yl)pentane-1-sulfonamide]
0	> 25	C[C@@H](NS(=O)(=O)CCCCCN1CC(=O)N(COCC[Si](C)(C)C)C1=O)c1ccc(F)c(OCC2CC2)c1 [Example 95, (R)—N-(1-(3-(cyclopropylmethoxy)-4-fluorophenyl)ethyl)-5-(2,4-dioxo-3-((2-(trimethylsilyl)ethoxy)methyl)-imidazolidin-1-yl)pentane-1-sulfonamide]
37	2	CC(Oc1cc([C@@H](C)NS(=O)(=O)CCCCCN2CC(=O)NC2=O)ccc1F)C1CC1 (stereo partly drawn) [Example 90, N—((1R)-1-(3-(1-cyclopropylethoxy)-4-fluorophenyl)ethyl)-5-(2,4-dioxoimidazolidin-1-yl)pentane-1-sulfonamide]
37	2	C[C@@H](NS(=O)(=O)CCCCCN1CC(=O)NC1=O)c1ccc(F)c(OCC2COC2)c1 [Example 87, (R)-5-(2,4-dioxoimidazolidin-1-yl)-N-(1-(4-fluoro-3-(oxetane-3-ylmethoxy)phenyl)ethyl)pentane-1-sulfonamide]
187		C[C@@H](NS(=O)(=O)CCCOCN1CC(=O)NC1=O)c1ccc(F)c(OC2CCCC2)c1 [Example 85, (R)—N-(1-(3-(cyclopentyloxy)-4-fluorophenyl)ethyl)-3-((2,4-dioxoimidazolidin-1-yl)methoxy)propane-1-sulfonamide]
20	3.75	C[C@@H](NS(=O)(=O)CCCCCN1CC(=O)N(C(=O)OC(C)(C)C)C1=O)c1ccc(F)c(OCC2CC2)c1 [Example 93]
37		C[C@@H](NS(=O)(=O)C/C=C/CCC1(C)NC(=O)NC1=O)c1ccc(F)c(OCC2CC2)c1 (stereo partly drawn) [127a, (E)-N—((R)-1-(3-(cyclopropylmethoxy)-4-fluorophenyl)ethyl)-5-(4-methyl-2,5-dioxoimidazolidin-4-yl) pent-2-ene-1-sulfonamide]
40		C[C@H]1C(=O)NC(=O)N1C/C=C/CCS(=O)(=O)NC1(c2ccc(F)c(OCC(C)(C)O)c2)CC1 [compound 122, (S,E)-N-(1-(4-fluoro-3-(2-hydroxy-2-methylpropoxy)phenyl)cyclopropyl)-5-(5-methyl-2,4-dioxoimidazolidin-1-yl)pent-3-ene-1-sulfonamide]
187		C[C@@H](NS(=O)(=O)CCCCCN1CC(=O)NC1=O)c1ccc(F)c(OC2CCCC2)c1 [Example 86, (R)—N-(1-(3-(cyclopentyloxy)-4-fluorophenyl)ethyl)-5-(2,4-dioxoimidazolidine-1-yl)pentane-1-sulfonamide]

SMILES	% relative inhibition vs. positive control [%]	IC50 [µM]
C[C@@H](NS(=O)(=O)CC/C=C/CC1CC(=O)NC1=O)c1ccc(F)c(OCC2CC2)c1 (stereo partly drawn) [compound 125, (E)-N—((R)-1-(3-(cyclopropylmethoxy)-4-fluorophenyl)ethyl)-5-(2,5-dioxopyrrolidin-3-yl)pent-3-ene-1-sulfonamide]	71	
CC(C)COc1cc([C@@H](C)NS(=O)(=O)CCC=CCN2C(=O)NC(=O)C2(C)C)ccc1F [Example 113, (R)-5-(5,5-dimethyl-2,4-dioxoimidazolidin-1-yl)-N-(1-(4-fluoro-3-isobutoxyphenyl)ethyl)pent-3-ene-1-sulfonamide]	8	
C[C@@H](NS(=O)(=O)CCCCCC1(C)NC(=O)NC1=O)c1ccc(F)c(OCC2CC2)c1 (stereo partly drawn) [127b, N—((R)-1-(3-(cyclopropylmethoxy)-4-fluorophenyl)ethyl)-5-(4-methyl-2,5-dioxoimidazolidin-4-yl) pentane-1-sulfonamide]	71	
C[C@@H](NS(=O)(=O)CCCCCN1CC(=O)NC1=O)c1ccc(F)c(OC2CCC2)c1 [Example 83, (R)—N-(1-(3-cyclobutoxy-4-fluorophenyl)ethyl)-5-(2,4-dioxoimidazolidin-1-yl)pentane-1-sulfonamide]	37	2
O=C1CN(CCCCCS(=O)(=O)NC2CCc3c2ccc(F)c3OCC2CC2)C(=O)N1 (stereo not drawn) [Example 105, N-(4-(cyclopropylmethoxy)-5-fluoro-2,3-dihydro-1H-inden-1-yl)-5-(2,4-dioxoimidazolidin-1-yl) pentane-1-sulfonamide]	36	
